Patent US7282507B2, “Indole derivatives as selective androgen receptor modulators (SARMS)” (Janssen Pharmaceutica N.V., priority 2004, dated 2007)

Tests used:
[1] = biological target: T1, androgen receptor (rat ventral prostate cytosol) (Rattus norvegicus, UniProt P15207); assay: Androgen Receptor Binding Using Rat Ventral Prostate Cytosol; conditions: for IC50: read-out: IC50 (nM), Androgen Receptor Binding (Rat Cytosol); for inhibition at 1 µM: read-out: % Inhibition, Androgen Receptor Binding (Rat Cytosol)
T1 construct: from tissue; host or cells: ventral prostate cytosol of castrated male Sprague Dawley or Wistar rats
T1 sequence (P15207 1-902): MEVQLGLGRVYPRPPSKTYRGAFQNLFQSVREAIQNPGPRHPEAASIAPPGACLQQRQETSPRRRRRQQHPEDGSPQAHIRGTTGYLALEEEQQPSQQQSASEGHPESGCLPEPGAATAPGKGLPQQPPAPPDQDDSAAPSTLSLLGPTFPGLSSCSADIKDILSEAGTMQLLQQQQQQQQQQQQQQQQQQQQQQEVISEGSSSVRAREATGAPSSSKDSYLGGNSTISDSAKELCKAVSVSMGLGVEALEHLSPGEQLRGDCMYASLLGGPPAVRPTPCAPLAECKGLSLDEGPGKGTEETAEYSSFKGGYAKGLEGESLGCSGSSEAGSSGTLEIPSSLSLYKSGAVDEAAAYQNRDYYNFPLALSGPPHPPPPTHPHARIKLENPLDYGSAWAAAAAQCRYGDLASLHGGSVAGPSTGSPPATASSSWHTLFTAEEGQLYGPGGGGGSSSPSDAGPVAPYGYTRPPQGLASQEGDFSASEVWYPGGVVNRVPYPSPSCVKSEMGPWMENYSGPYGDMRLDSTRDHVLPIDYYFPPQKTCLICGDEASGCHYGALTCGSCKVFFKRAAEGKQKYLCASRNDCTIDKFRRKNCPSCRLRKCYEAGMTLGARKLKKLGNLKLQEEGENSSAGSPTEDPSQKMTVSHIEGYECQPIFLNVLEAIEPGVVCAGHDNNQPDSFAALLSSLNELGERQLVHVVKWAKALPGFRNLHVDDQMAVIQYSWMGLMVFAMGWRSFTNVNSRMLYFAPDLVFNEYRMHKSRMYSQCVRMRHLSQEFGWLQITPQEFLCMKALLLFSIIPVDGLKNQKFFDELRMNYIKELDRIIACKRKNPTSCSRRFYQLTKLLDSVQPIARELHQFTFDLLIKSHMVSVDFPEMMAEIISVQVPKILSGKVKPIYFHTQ
Procedure: The assay was run on a 96 well plate with each well filled with a total reaction volume 150 μL, of a solution containing 5 pmol androgen receptor LBD (Panvera) or 30 μL of freshly prepared rat cytosol, 0.5 nM [^3H] […] (TED buffer contains 10 mM Tris.HCl pH 7.4, 1 mM sodium molybdate, 1.5 mM EDTA, 1 mM DTT and 10% (v/v) glycerol.)
On day one, the solution containing receptor, tracer and TED buffer was distributed into a 96 well plate. Diluted test compound or control vehicle was then added to individual wells and the plate incubated at 4° C. overnight.
On day two, to each well was then added 20 μL human γ-globulin (ICN 823102), prepared at 25 mg/ml in TE pH 8.0, and 55 μL 40% polyethylene glycol 8000 (J T Baker U222-08), prepared in TE pH 8.0. The plate was incubated at 4° C. for 60 minutes. During incubation, the harvester was rinsed with 10% PEG 8000, prepared in TE pH 8.0, and a GF/C Unifilter-96 was pre-wet with 10% PEG. The binding reaction was filtered, the retentate was washed three times with 10% PEG and dried under vacuum for a couple of minutes, then dried at 50° C. for 5 min and the plate was bottom sealed. Next, 25 μL of Microscint-20 (Packard) was added to the filter wells and the plate was top sealed. The plate wells were then counted on a TopCount (Packard).
Rat Prostate Cytosol Preparation:
Male Sprague Dawley or Wistar rats (Charles River, 200-300 g) were used for each preparation. The day before preparing the cytosol, the rats were castrated using standard surgical procedures.
The rats were euthanized by carbon dioxide asphyxiation. The rat prostates were quickly removed and placed on ice in pre-chilled, pre-weighed 50 mL plastic tubes. No more than five prostates were placed into one tube. The tubes were then weighed and the prostate tissue wet weights calculated.
To the chilled prostate tissue was then added […] of chilled homogenization buffer. The homogenization buffer was freshly prepared by mixing 10 mM Tris.HCl, pH 7.4, 1 mM sodium molybdate, 1.5 mM EDTA, 1 mM dithiothreitol, 10% (v/v) glycerol and 1% protease inhibitor cocktail (Sigma P 8340).
The prostate tissue was homogenized in a cold room using a pre-chilled Polytron PT3000 homogenizer (Brinkmann). Homogenization was performed at a speed setting of 20, three times for 10 sec bursts. The tubes containing the prostate tissue was kept on ice while homogenizing. The homogenate was allowed to rest on ice for 20 sec between bursts.
The homogenate was then placed into pre-chilled 3 mL polycarbonate ultracentrifuge tubes and centrifuged in the TLA-100 rotor of a TL-100 ultracentrifuge for 12 min at 100,000 rpm at 4° C. The resulting supernatant was stored in 1 mL aliquots at −80° C. until needed.
Binding to the androgen receptor was determined according to the protocol described in Example 86 using the above prepared rat cytosol.
% Inhibition was determined by testing dilutions of the test compound (usually duplicates of 10 μM) in the binding assay. Counts per well were measured and percents of inhibition determined. […] Counts per well were measured and IC50s determined by linear regression.

[2] = system: testosterone-enhanced ventral prostate and seminal vesicle weights; assay: Ventral Prostate and Seminal Vesicle Weight in vivo Assay; design: species or system rat; conditions: immature castrated male Sprague Dawley rats, once daily for five days, usually orally 40 mg/kg, with testosterone propionate 2 mg/kg s.c. Note: key: 'active' if the non weight adjusted prostate weight was ≦40 mg or the % Inhibition prostate weight, body weight adjusted was ≧40% @ 2 mg/day dosage; ID50's, if determined, of ≦15 mg/day also indicated an 'active' compound; listed herein as 'inactive' as they did not meet the specified criteria defined above.
Procedure, shortened: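 Immature castrated male Sprague Dawley rats (~50 g) were dosed once daily for five days with compound, usually orally at 40 mg/kg in cyclodextrin or methylcellulose vehicle. Testosterone propionate was co-dosed subcutaneously at 2 mg/kg. On day six, ventral prostate and seminal vesicle wet weights were measured; activity was judged on prostate weight or body-weight-adjusted % inhibition.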

[3] = biological target: T2, androgen receptor (AdEasy+rAR, L929 cells) (Rattus norvegicus, UniProt P15207); assay: L929 Androgen Receptor Functional Assay, Adenovirus Transduction; type: cell-based; conditions: agonist testing, 3000 nM
T2 construct: expressed in transfected cells; host or cells: L929 cells transduced with adenovirus AdEasy+rAR
T2 sequence (P15207 1-902): T1 sequence (P15207 1-902)
Procedure: L929 cells were plated in 96-well plates at 20,000 cells per well, in DMEM/F12 (GIBCO) containing 10% (v/v) charcoal-treated fetal bovine serum (Hyclone) and lacking phenol red. The plates were then incubated overnight at 37° C. in 5% (v/v) humidified CO2.
Test compound dilutions were prepared in 100% (v/v) DMSO, if necessary. Each dilution was made to 1250× the final desired assay concentration.
First, 2 mL of DMEM/F12 lacking phenol red was pipetted into the wells of a 2-mL 96-well assay block. Next, 4 μL of the 1250× test compound dilutions were pipetted into each well of the assay block. The mixtures within the well were then carefully mixed by pipette.
In a 15 mL or 50 mL sterile centrifuge tube, a 2.5 nM (2.5×) dilution of R1881 (methyl-trienolone) in DMEM/F12 lacking phenol red was prepared.
In a second 15 mL or 50 mL centrifuge tube a solution containing an equal volume of DMEM to the first and an equal volume of 100% (v/v) DMSO to the volume of R1881 used in the first tube was prepared.
In a 15 mL or 50 mL sterile centrifuge tube, a dilution in DMEM/F12 of the adenovirus AdEasy+rAR at an moi of 1:500 per well was prepared.
The medium was removed from the 96-well plates by inversion and dried, inverted, very briefly. As soon as possible after medium removal, 40 μL of the diluted unlabeled test compound was added to each well, in duplicate. To each well designated for antagonist testing was added 40 μL of the 2.5 nM R1881 dilution to the wells for antagonist testing. To each well designated for agonist testing was added 40 μL of the DMSO dilution. Then 20 μL of the diluted adenovirus were added to all wells. The plates were incubated for 48 hours at 37° C. in 5% (v/v) humidified CO2.
To each well was added 100 μL of Steady-Glo luciferase assay substrate (Promega) and the plates were placed on a rotary shaker for 1 min. The plates were then incubated at room temperature in the dark for one hour. The contents of each well were then transferred to a white microtiter plate (Packard) and read on a Luminoskan Ascent (Thermo Lab Systems).
L929 AR percent activity was determined by testing dilutions of the test compound using a concentration of 3000 nM unless otherwise noted. L929 percent inhibition was determined by testing dilutions of the test compound using a concentration of 3000 nM. […] Luciferase activity per well were measured and EC50s and IC50s determined by linear regression.

Row | SMILES | % Inhibition, Androgen Receptor Binding (Rat Cytosol) ([1]; Concentration 1000 nM) [%] | IC50 [1] [nM] | further results
1 | CN(C)c1ccc(S(=O)(=O)CC(C)(O)c2cc3cc(Cl)c(C(F)(F)F)cc3[nH]2)cc1 (racemic) [Compound 126] |  |  | % Inhibition, Androgen Receptor Binding (Rat Cytosol) ([1]; Concentration 3000 nM): −30%; active / inactive: inhibition of testosterone-enhanced prostate weight [2]: inactive; % Activity, L929 androgen receptor functional assay [3]: −5%
2 | CC(O)(CS(=O)(=O)Cc1ccccc1)c1cc2cc([N+](=O)[O-])c(C(F)(F)F)cc2[nH]1 (racemic) [Compound 162] |  |  | % Inhibition, Androgen Receptor Binding (Rat Cytosol) ([1]; Concentration 3000 nM): 0.69%; active / inactive: inhibition of testosterone-enhanced prostate weight [2]: inactive; % Activity, L929 androgen receptor functional assay [3]: 2%
3 | CC(O)(Sc1ccc(N)cc1)c1cc2cc(Cl)c(C(F)(F)F)cc2[nH]1 (racemic) [Compound 265] |  |  | % Inhibition, Androgen Receptor Binding (Rat Cytosol) ([1]; Concentration 3000 nM): 93.5%; % Activity, L929 androgen receptor functional assay [3]: −1%
4 | CS(=O)(=O)n1c(C2(O)CCN(C(=O)c3ccc(Cl)cc3)CC2)cc2cc(Cl)c(C(F)(F)F)cc21 [Compound 24] | 2 |  | 
5 | Cc1ccc(CN2CCC(O)(c3cc4cc([N+](=O)[O-])c(C(F)(F)F)cc4[nH]3)CC2)cc1 [Compound 27] |  | 3100 | 
6 | OC1(c2cc3cc(Cl)c(C(F)(F)F)cc3[nH]2)CCN(Cc2ccc(F)cc2)CC1 [Compound 28] | −3.4 | 7000 | 
7 | COc1cccc(CN2CCC(O)(c3cc4cc(Cl)c(C(F)(F)F)cc4[nH]3)CC2)c1 [Compound 29] | −1.8 | 4700 | 
8 | Cc1ccc(CN2CCC(O)(c3cc4cc(Cl)c(C(F)(F)F)cc4[nH]3)CC2)cc1 [Compound 30] | −7.7 | 4100 | 
9 | OC1(c2cc3cc(Cl)c(C(F)(F)F)cc3[nH]2)CCN(Cc2ccc(Cl)cc2)CC1 [Compound 31] | 20 | 4050 | 
10 | CC(C)(C)c1ccc(CN2CCC(O)(c3cc4cc(Cl)c(C(F)(F)F)cc4[nH]3)CC2)cc1 [Compound 32] | 34 | 43000 | 
11 | OC1(c2cc3cc(Cl)c(C(F)(F)F)cc3[nH]2)CCN(Cc2ccc(C(F)(F)F)cc2)CC1 [Compound 33] | 11 | 29000 | 
12 | CS(=O)(=O)c1ccc(CN2CCC(O)(c3cc4cc(Cl)c(C(F)(F)F)cc4[nH]3)CC2)cc1 [Compound 34] | 18 | 5700 | 
13 | COc1ccc(CN2CCC(O)(c3cc4cc(Cl)c(C(F)(F)F)cc4[nH]3)CC2)cc1 [Compound 35] | −19 | 4200 | 
14 | OC1(c2cc3cc(Cl)c(C(F)(F)F)cc3[nH]2)CCN(Cc2ccc(Cl)c(Cl)c2)CC1 [Compound 36] | −34 | > 100000 | 
15 | O=[N+]([O-])c1cc2cc(C3(O)CCN(Cc4ccc(F)cc4)CC3)[nH]c2cc1C(F)(F)F [Compound 37] |  | 3600 | inhibition at 1 µM ([1]; Concentration 1000 nM): 25%
16 | COc1cccc(CN2CCC(O)(c3cc4cc([N+](=O)[O-])c(C(F)(F)F)cc4[nH]3)CC2)c1 [Compound 38] |  | 8800 | % Inhibition, Androgen Receptor Binding (Rat Cytosol) ([1]; Concentration 1000 nM, 1 µM): 16%
17 | COc1cccc(CN2CCC(O)(c3cc4cc([N+](=O)[O-])c(C(F)(F)F)cc4[nH]3)CC2)c1 [Compound 39] |  | > 6100 | % Inhibition, Androgen Receptor Binding (Rat Cytosol) ([1]; Concentration 1000 nM, 1 µM): 6%
18 | O=[N+]([O-])c1cc2cc(C3(O)CCN(Cc4ccc(Cl)cc4)CC3)[nH]c2cc1C(F)(F)F [Compound 40] |  | 3800 | % Inhibition, Androgen Receptor Binding (Rat Cytosol) ([1]; Concentration 1000 nM, 1 µM): −2.5%
19 | O=[N+]([O-])c1cc2cc(C3(O)CCN(Cc4ccc(Cl)cc4)CC3)[nH]c2cc1C(F)(F)F [Compound 41] |  | 2300 | % Inhibition, Androgen Receptor Binding (Rat Cytosol) ([1]; Concentration 1000 nM, 1 µM): 20%
20 | Cc1ccc(CN2CCC(O)(c3cc4cc([N+](=O)[O-])c(C(F)(F)F)cc4[nH]3)CC2)cc1 [Compound 42] |  | 7100 | inhibition at 1 µM ([1]; Concentration 1000 nM): 23%
21 | O=[N+]([O-])c1cc2cc(C3(O)CCN(Cc4ccc(Cl)c(Cl)c4)CC3)[nH]c2cc1C(F)(F)F [Compound 43] | 5.8 | 9100 | 
22 | CC(O)(CS(=O)(=O)c1ccc(F)cc1)c1cc2cc(C#N)c(C(F)(F)F)cc2[nH]1 (stereo not drawn) [Compound 110] |  |  | inhibition at 1 µM ([1]; Concentration 1000 nM): 58.5%
23 | CC(O)(C[S+]([O-])c1ccccc1)c1cc2cc(Cl)c(C(F)(F)F)cc2[nH]1 (stereo not drawn) [Compound 115] |  | 1300 | % Inhibition, Androgen Receptor Binding (Rat Cytosol) ([1]; Concentration 1000 nM, 1 µM): 54.5%
